# Several values for one entry are separate records, joined by “and”; a condition that tells them apart may be missing. Identical values can stand only once. Like-named read-outs stand apart in the source and are kept apart here.
# Key:
# Format in all cases: cell-based
# [1] = test system: C. pneumoniae TW-183, CWL-029; assay: Anti-bacterial susceptibilities of reference strains; conditions: for MIC: Chlamydia pneumoniae, HEp-2 cells, read-out: MIC (microtiter)
# [2] = test system: Chlamydia trachomatis clinical isolates; assay: Anti-bacterial susceptibilities of clinical isolates; conditions: for MIC: Chlamydia trachomatis, read-out: MIC (microtiter)
# [3] = test system: C. trachomatis serovar D strain; assay: Comparison of MIC, MCC, MCC3 and MCC3/MIC ratio in McCoy cells; conditions: for MIC: Chlamydia trachomatis
# [4] = test system: C. trachomatis serovar D (strain UW-3); assay: Effect of inoculum size on doxycycline MIC, MCC and MCC3
# [5] = test system: C. trachomatis B,D,E,F,G,H,I,Ia,J,K (human genital serovars); assay: Anti-bacterial susceptibilities of reference strains; conditions: Chlamydia trachomatis; McCoy cells; read-out: MIC (microtiter)
# [6] = test system: C. trachomatis L2 (LGV serovar); assay: as above; conditions: Chlamydia trachomatis; McCoy cells; read-out: MIC (microtiter)
# [7] = test system: C. trachomatis MoPn (mouse pneumonitis strain); assay: as above; conditions: Chlamydia trachomatis; McCoy cells; read-out: MIC (microtiter)
# C. psittaci 6BC, GPIC = assay: microbe, parasite or virus in culture; conditions: Chlamydia psittaci, read-out: MIC (microtiter)
# [8] = test system: clinical isolates of C. trachomatis; assay: microbe, parasite or virus in culture
# [9] = test system: Chlamydia trachomatis serovar D; assay: microbe, parasite or virus in culture
# [10] = CDC strains sensitive controls (n = 2), McCoy cells
# [11] = CDC strains treatment failures (n = 2), McCoy cells
# [12] = Recurrent same serovar isolates (n = 6), McCoy cells
# [13] = Single isolates (n = 30), McCoy cells
# [14] = Treatment failure isolates (n = 6), McCoy cells
# [15] = inoculum 0.3125 × 10^3 IFU/well
# [16] = CDC strains treatment failures (n = 2), multi-drug resistant at CDC, McCoy cells
structure (smiles),measurement,setting,value
"CC[C@H]1OC(=O)[C@H](C)[C@@H](O[C@H]2C[C@@](C)(OC)[C@@H](O)[C@H](C)O2)[C@H](C)[C@@H](O[C@@H]2O[C@H](C)C[C@H](N(C)C)[C@H]2O)[C@](C)(O)C[C@@H](C)CN(C)[C@H](C)[C@@H](O)[C@]1(C)O [Azithromycin, azithromycin]",MCC1 (shell vial),[1],4 to 8 µg/mL
same,MCC3 (shell vial),[1],64 µg/mL
same,MCC (microtiter),[1],0.25 µg/mL
same,MCC3 (shell vial),[2]; [10],64 µg/mL
same,MCC (microtiter),[2]; [10],0.25 to 0.5 µg/mL
same,MCC (shell vial),[2]; [10],>8 µg/mL
same,MCC3 (shell vial),[2]; [11],64 µg/mL
same,MCC (microtiter),[2]; [11],0.25 to 0.5 µg/mL
same,MCC (shell vial),[2]; [11],>8 µg/mL
same,MCC3 (shell vial),[2]; [12],64 µg/mL
same,MCC (microtiter),[2]; [12],0.25 to 0.5 µg/mL
same,MCC (shell vial),[2]; [12],>8 µg/mL
same,MCC3 (shell vial),[2]; [13],64 µg/mL
same,MCC (microtiter),[2]; [13],0.25 to 0.5 µg/mL
same,MCC (shell vial),[2]; [13],>8 µg/mL
same,MCC3 (shell vial),[2]; [14],64 µg/mL
same,MCC (microtiter),[2]; [14],0.25 to 0.5 µg/mL
same,MCC (shell vial),[2]; [14],>8 µg/mL
same,MCC,[3]; McCoy cells,8 µg/mL
same,MCC3,[3]; McCoy cells,64 µg/mL
"C[C@H]1c2cccc(O)c2C(=O)C2=C(O)[C@]3(O)C(=O)C(C(N)=O)=C(O)[C@@H](N(C)C)[C@@H]3[C@@H](O)[C@@H]21 [Doxycycline, doxycycline]",MIC,"[4]; Chlamydia trachomatis, inoculum 80 × 10^3 IFU/well, read-out: MIC",64 ng/mL
same,MCC,[4]; [15],0.064 µg/mL
same,MCC3,[4]; [15],0.064 µg/mL
same,MIC,[4]; [15],64 ng/mL
same,MCC,[4]; inoculum 0.625 × 10^3 IFU/well,0.064 µg/mL
same,MCC3,[4]; inoculum 0.625 × 10^3 IFU/well,0.064 µg/mL
same,MIC,[4]; inoculum 0.625 × 10^3 IFU/well,64 ng/mL
same,MCC,[4]; inoculum 5 × 10^3 IFU/well,>8 µg/mL
same,MCC3,[4]; inoculum 5 × 10^3 IFU/well,64 µg/mL
same,MIC,[4]; inoculum 5 × 10^3 IFU/well,64 ng/mL
same,MCC,[4]; inoculum 10 × 10^3 IFU/well,>8 µg/mL
same,MCC3,[4]; inoculum 10 × 10^3 IFU/well,64 µg/mL
same,MIC,[4]; inoculum 10 × 10^3 IFU/well,64 ng/mL
same,MCC,[4]; inoculum 20 × 10^3 IFU/well,>8 µg/mL
same,MCC3,[4]; inoculum 20 × 10^3 IFU/well,64 µg/mL
same,MIC,[4]; inoculum 20 × 10^3 IFU/well,64 ng/mL
same,MCC,[4]; inoculum 40 × 10^3 IFU/well,>8 µg/mL
same,MCC3,[4]; inoculum 40 × 10^3 IFU/well,64 µg/mL
same,MIC,[4]; inoculum 40 × 10^3 IFU/well,64 ng/mL
same,MCC,[4]; inoculum 80 × 10^3 IFU/well,>8 µg/mL
same,MCC3,[4]; inoculum 80 × 10^3 IFU/well,64 µg/mL
same,MCC,[4]; inoculum 160 × 10^3 IFU/well,>8 µg/mL
same,MCC3,[4]; inoculum 160 × 10^3 IFU/well,64 µg/mL
same,MIC,[4]; inoculum 160 × 10^3 IFU/well,64 ng/mL
same,MCC,[4]; inoculum 320 × 10^3 IFU/well,>8 µg/mL
same,MCC3,[4]; inoculum 320 × 10^3 IFU/well,64 µg/mL
same,MIC,[4]; inoculum 320 × 10^3 IFU/well,64 ng/mL
same,MCC,[4]; inoculum […] 10^3 IFU/well,0.064 µg/mL
same,MCC3,[4]; inoculum […] 10^3 IFU/well,0.064 µg/mL
same,MIC,[4]; inoculum […] 10^3 IFU/well,64 ng/mL
same,MIC,[5],64 ng/mL
same,MIC,[6],64 ng/mL
same,MIC,[7],64 ng/mL
same,MCC1 (shell vial),[1],4 to 8 µg/mL
same,MCC3 (shell vial),[1],32 to 64 µg/mL
same,MCC (microtiter),[1],0.125 µg/mL
same,MIC,[1],64 ng/mL
same,MIC,"C. psittaci 6BC, GPIC",64 ng/mL
same,MCC3 (shell vial),[2]; [10],16 to 64 µg/mL
same,MCC (microtiter),[2]; [10],0.125 to 0.25 µg/mL
same,MCC (shell vial),[2]; [10],>8 µg/mL
same,MIC (microtiter),[2]; [10],64 to 125 ng/mL
same,MIC (microtiter),[2]; [16],64 to 125 ng/mL
same,MCC3 (shell vial),[2]; [11],16 to 64 µg/mL
same,MCC (microtiter),[2]; [11],0.125 to 0.25 µg/mL
same,MCC (shell vial),[2]; [11],>8 µg/mL
same,MIC,[2],64 to 125 ng/mL
same,MCC3 (shell vial),[2]; [12],16 to 64 µg/mL
same,MCC (microtiter),[2]; [12],0.125 to 0.25 µg/mL
same,MCC (shell vial),[2]; [12],>8 µg/mL
same,MCC3 (shell vial),[2]; [13],16 to 64 µg/mL
same,MCC (microtiter),[2]; [13],0.125 to 0.25 µg/mL
same,MCC (shell vial),[2]; [13],>8 µg/mL
same,MIC (microtiter),[2]; [13],64 to 125 ng/mL
same,MCC3 (shell vial),[2]; [14],16 to 64 µg/mL
same,MCC (microtiter),[2]; [14],0.125 to 0.25 µg/mL
same,MCC (shell vial),[2]; [14],>8 µg/mL
same,MIC (microtiter),[2]; [14],64 to 125 ng/mL
same,MCC3/MIC,[3],1000
same,MIC,"[3]; McCoy cells, read-out: MIC",64 ng/mL
same,MCC,[3]; McCoy cells,8 µg/mL
same,MCC3,[3]; McCoy cells,64 µg/mL
same,MCC3/MIC,[8],1000
same,MIC,[8]; Chlamydia trachomatis,64 to 125 ng/mL
"CC[C@H]1OC(=O)[C@H](C)[C@@H](O[C@H]2C[C@@](C)(OC)[C@@H](O)[C@H](C)O2)[C@H](C)[C@@H](O[C@@H]2O[C@H](C)C[C@H](N(C)C)[C@H]2O)[C@](C)(O)C[C@@H](C)C(=O)[C@H](C)[C@@H](O)[C@]1(C)O [Erythromycin, erythromycin]",MIC,"[3]; McCoy cells, read-out: MIC",500 ng/mL
same,MCC,[3]; McCoy cells,8 µg/mL
CCCN1CCN(c2cc(O)c3nc4c5c6c7c(C)c(O)c5c(=O)c(c-4oc3c2)NC(=O)/C(C)=C\C=C\[C@H](C)[C@H](O)[C@@H](C)[C@@H](O)[C@@H](C)[C@H](OC(C)=O)[C@H](C)[C@@H](OC)/C=C/O[C@@](C)(O7)C6=O)CC1 [KRM-1657],MCC3/MIC,[8],16
same,MIC,[8],0.064 to 0.125 ng/mL
same,anti-chlamydial activity in words,[8],highly active
"CC1COc2c(N3CCN(C)CC3)c(F)cc3c(=O)c(C(=O)O)cn1c23 (stereo not drawn) [Ofloxacin, ofloxacin]",MCC,[9],>8 µg/mL and 4 µg/mL and 8 µg/mL
same,MIC,[5],500 ng/mL
same,MIC,[6],500 ng/mL
same,MIC,[7],500 ng/mL
same,MCC1 (shell vial),[1],>8 µg/mL
same,MCC3 (shell vial),[1],>128 µg/mL
same,MCC (microtiter),[1],1.0 µg/mL
same,MIC,[1],500 ng/mL
same,MIC,"C. psittaci 6BC, GPIC",500 ng/mL
same,MCC3 (shell vial),[2]; [10],>128 µg/mL
same,MCC (microtiter),[2]; [10],1 to 2 µg/mL
same,MCC (shell vial),[2]; [10],>8 µg/mL
same,MIC (microtiter),[2]; [10],500 to 1000 ng/mL
same,MIC (microtiter),[2]; [16],500 to 1000 ng/mL
same,MCC3 (shell vial),[2]; [11],>128 µg/mL
same,MCC (microtiter),[2]; [11],1 to 2 µg/mL
same,MCC (shell vial),[2]; [11],>8 µg/mL
same,MIC,[2]; [12],500 to 1000 ng/mL
same,MCC3 (shell vial),[2]; [12],>128 µg/mL
same,MCC (microtiter),[2]; [12],1 to 2 µg/mL
same,MCC (shell vial),[2]; [12],>8 µg/mL
same,MCC3 (shell vial),[2]; [13],>128 µg/mL
same,MCC (microtiter),[2]; [13],1 to 2 µg/mL
same,MCC (shell vial),[2]; [13],>8 µg/mL
same,MIC (microtiter),[2]; [13],500 to 1000 ng/mL
same,MCC3 (shell vial),[2]; [14],>128 µg/mL
same,MCC (microtiter),[2]; [14],1 to 2 µg/mL
same,MCC (shell vial),[2]; [14],>8 µg/mL
same,MIC (microtiter),[2]; [14],500 to 1000 ng/mL
same,MCC3,[3],128 µg/mL
same,MCC3/MIC,[3],128
same,MIC,"[3]; McCoy cells, read-out: MIC",1000 ng/mL
same,MCC,[3]; McCoy cells,16 µg/mL
same,MCC3/MIC,[8],128
same,MIC,[8]; Chlamydia trachomatis,1000 to 2000 ng/mL
"CO[C@H]1/C=C/O[C@@]2(C)Oc3c(C)c(O)c4c(=O)c(c5oc6cc(N7CCN(CC(C)C)CC7)cc(O)c6nc-5c4c3C2=O)NC(=O)/C(C)=C\C=C\[C@H](C)[C@H](O)[C@@H](C)[C@@H](O)[C@@H](C)[C@H](OC(C)=O)[C@@H]1C [Rifalazil, rifalazil]",MCC3/MIC,[3],16
same,MIC,"[3]; McCoy cells, read-out: MIC",0.25 ng/mL
same,MCC,[3]; McCoy cells,0.002 µg/mL
same,MCC3,[3]; McCoy cells,0.004 µg/mL
same,anti-chlamydial activity in words,"[3]; McCoy cells, compared with other drugs",highly active
same,MCC3/MIC,[8],16
same,anti-chlamydial activity in words,[8],highly active
same,MIC,[8]; Chlamydia trachomatis,0.25 to 5 ng/mL
"CO[C@H]1/C=C/O[C@@]2(C)Oc3c(C)c(O)c4c(O)c(c(/C=N/N5CCN(C)CC5)c(O)c4c3C2=O)NC(=O)/C(C)=C\C=C\[C@H](C)[C@H](O)[C@@H](C)[C@@H](O)[C@@H](C)[C@H](OC(C)=O)[C@@H]1C [Rifampin, rifampin]",MIC,"[3]; McCoy cells, read-out: MIC",16 ng/mL
same,MCC,[3]; McCoy cells,0.5 µg/mL
same,MCC3,[3]; McCoy cells,4 µg/mL
same,MCC3/MIC,[3]; McCoy cells,250
"CN(C)[C@@H]1C(O)=C(C(N)=O)C(=O)[C@@]2(O)C(O)=C3C(=O)c4c(O)cccc4[C@@](C)(O)[C@H]3C[C@@H]12 [Tetracycline, tetracycline]",MIC,[9]; Chlamydia trachomatis,250 ng/mL
same,MCC,[3],16 µg/mL
same,MCC3,[3],128 µg/mL
same,MCC3/MIC,[3],128
same,MIC,[3],250 ng/mL

# Reference: patent publication US20040029254A1, “Method of screening anti-bacterial agents for effectiveness in treating persistant intracellular infections” (University of Washington, priority 2002, published 2004)
